Test results taken from patent US6723710B2, “Compositions for inhibiting arginase activity” (The Trustees of the University of Pennsylvania, priority 1997, dated 2004).

What was measured:
rat liver arginase [1] = target: T1, rat liver arginase (Rattus norvegicus, UniProt P07824); assay: radioactive L-[guanidino-14C]arginine arginase assay (Example 3); assay type: biochemical; design: made in house; details: [14C-guanidino]-L-arginine assay, low inhibitor concentrations, assuming competitive inhibition; read-out: Ki (apparent)
T1 sequence (P07824 1-323): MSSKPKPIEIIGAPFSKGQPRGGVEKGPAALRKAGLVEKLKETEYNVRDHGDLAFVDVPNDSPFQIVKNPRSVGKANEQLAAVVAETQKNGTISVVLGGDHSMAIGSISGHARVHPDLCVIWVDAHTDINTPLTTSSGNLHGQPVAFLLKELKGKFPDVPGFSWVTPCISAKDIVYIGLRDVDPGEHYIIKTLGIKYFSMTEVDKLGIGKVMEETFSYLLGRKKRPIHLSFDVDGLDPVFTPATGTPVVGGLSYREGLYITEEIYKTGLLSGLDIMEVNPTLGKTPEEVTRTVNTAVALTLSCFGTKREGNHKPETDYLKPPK
Description: Assays were performed in 100 micromolar MnCl2, 100 millimolar CHES-NaOH (pH 9.0). The reactions were initiated by addition of 5 microliters of a circa 1 unit per milliliter enzyme solution to 45 microliters of reaction mixture containing CHES buffer, 1.4 millimolar L-arginine, about 5.0×10^4 counts per minute of L-[guanidino- ^14C]arginine, and variable concentrations of the appropriate inhibitor. After a 5-15 minute reaction time, 200 microliters of a stop solution containing 7 molar urea, 10 millimolar L-arginine, and 0.25 molar acetic acid (pH 4.5) was added to the reaction (arginase has essentially no activity under these conditions). [^14C]-Urea was separated from non-reacted L-[guanidino-^14 C]arginine by treatment with 200 microliters of a 1:1 (vol/vol) slurry of DOWEX™ 50 W-X8 in water, and quantitated by adding 200 microliters of the supernatant from the DOWEX™ treatment to 3 milliliters of LIQUISCINT™ (National Diagnostics) for liquid scintillation counting in a Beckman LS5000CE counter.

liver arginase activity = assay: arginase activity in liver homogenate; assay type: biochemical, opossum
Text: Tissue samples of the opossum internal anal sphincter muscle (IAS), adjoining rectal tissue, liver, and brain were homogenized using an ULTRATURRAX™ tissue homogenizer (Tekamr, Cincinnati, Ohio) in a solution comprising 10 millimolar Tris-HCl, 150 millimolar KCl, and 25 millimolar MnCl2, at pH 7.4. The homogenates were dialyzed overnight against the same solution. Dialyzed homogenates were centrifuged to remove insoluble material and concentrated with Amicon CENTRICON™ 30 microconcentrators to yield stock protein preparations having protein concentrations of 2.4 milligrams per milliliter for IAS smooth muscle, 3.6 milligrams per milliliter for rectal smooth muscle, 3 milligrams per milliliter for brain, and 17.5 milligrams per milliliter for liver. Protein concentrations were estimated with the Pierce Coomassie Protein Reagent kit using bovine serum albumin as a standard.
Arginase activity in tissue homogenates was evaluated using the radioactive L-[guanidino^14C]arginine assay of Rüegg and Russell (1980, Anal. Biochem. 102:206-212). Assays were performed using a solution comprising 100 millimolar CHES-NaOH and 0.1 millimolar MnCl2 at pH 9.0. The reactions were initiated by addition of 5 microliters of tissue homogenate to 45 microliters of reaction mixture that contained the CHES buffer, the appropriate concentration of arginine (0.5 to 5 millimolar) and about 5.0×10^4 counts per minute of L-[guanidino-^14C]arginine. IAS, rectal muscle, and brain homogenates were incubated with the assay mixture at room temperature for one hour, and the liver sample was incubated for 5 minutes. The reactions were stopped by addition of 200 microliters of a stop solution containing 0.25 molar acetic acid, 7 molar urea, and 10 millimolar […] at pH 4.5. Arginase has essentially no activity at the low pH of the stop solution. [^14C] Urea was separated from non-reacted L-[guanidino-^14C]arginine by treatment with 200 μl of 1:1 v/v slurry of DOWEX™ 50W-X8 in water, and quantitated by adding 200 microliters of the supernatant from the DOWEX™ treatment to 3 milliliters of LIQUISCENT™ (National Diagnostics) for liquid scintillation counting in a Beckman LS 5000CE counter. The data were analyzed using double-reciprocal plots of the initial velocity measurements; standard errors were determined by regression analysis.
Assays in the presence of the inhibitors N^ω-hydroxy-L-arginine (1 to 100 micromolar) and ABHA (0.05 to 100 micromolar) were performed as described above. The amino acid D-ornithine served as a control in these experiments, since this amino acid, unlike L-omithine, is not an inhibitor of arginase.

arginase = target: T2, arginase (Rattus norvegicus, UniProt P07824); assay: dialysis/dilution reversibility experiments with pre-incubated arginase-inhibitor complex; assay type: biochemical; design: made in house
T2 sequence (P07824 1-323): T1 sequence (P07824 1-323)
Description: Dialysis experiments of arginase with the arginase-compound 7 and arginase-compound 15 complexes were performed in following way. Thirty microliters of arginase at a concentration of 11.2 milligrams per milliliter were pre-incubated for thirty minutes with an appropriate concentration of compound 7 (5 microliters of 100 micromolar stock solution). […] Pre-incubates were then added to bicine buffer containing 4 millimolar compound 18. The final volume of the assay reaction solution was 1 milliliter.

rat liver arginase [2] = target: T1, rat liver arginase; assay: continuous chromogenic arginase assay with substrate 1-nitro-3-guanidinobenzene (compound 18); assay type: biochemical; design: made in house; details: 2 millimolar compound 18 as substrate; pseudo-turnover number, smaller = better inhibition
Description: The activity of wild-type arginase was monitored spectrophotometrically using a Pharmacia BIOTECH ULTROSPEC™ 2000. Assays were performed in a solution comprising 100 micromolar MnCl2 and 50 millimolar bicine-NaOH (pH 9.0). […] Eadie-Hofstee plots were used to analyze the data.

rat liver arginase [3] = target: T1, rat liver arginase; assay: [14C-guanidino]-arginine arginase activity assay (Example 2); assay type: biochemical; details: 100 millimolar CHES, pH 9.0, 1 millimolar arginine; read-out: IC50 for inhibition of arginase
Description: Arginase activity was assessed using the ^(14C-guanidino)-arginine assay of Rüegg et al. (1980, Anal. Biochem. 102:206-212), as described (Reczkowski et al., 1994, Arch. Biochem. Biophys. 312:31-37). […] […] et al., 1994, Biochem. Biophys. Res.

Structure (SMILES): N[C@@H](CCCCB(O)O)C(=O)O [compound 7, 2(S)-amino-6-boronohexanoic acid]
- Ki (rat liver arginase [1]): 100 nM
- Ki (liver arginase activity; arginine fixed at Km, assuming competitive inhibition, read-out: estimated Ki, liver arginase activity): 190 nM
- times more potent than L-HO-Arg, liver (liver arginase activity; liver homogenate): 5 times
- potency against liver arginase activity relative to non-hepatic tissues (liver arginase activity; liver versus IAS, rectum, brain): more potent inhibitor of non-hepatic than hepatic arginase activities
- IC50 (liver arginase activity; liver, read-out: IC50 for inhibition of arginase activity, liver homogenate): 440 nM
- inhibited velocity, control without pre-incubation (arginase; 9.6 micromolar arginase, 0.5 micromolar ABHA): 0.47 micromolar per minute
- reversibility of inhibition (arginase; 30 minutes pre-incubation): reversible inhibitor
- observed inhibited velocity, diluted pre-incubate (arginase; 30 minutes pre-incubation, diluted to 0.5 micromolar ABHA and 9.6 micromolar arginase): 0.46 micromolar per minute
- reversibility of inhibition (arginase; 30 minutes pre-incubation, listed as ABHA): completely instantaneous reversible inhibition
- tnpseudo (moles of inhibitor/mole of arginase) (rat liver arginase [2]): 0.7 ± 0.1 moles of inhibitor/mole of arginase
- IC50 (rat liver arginase [3]): 800 nM
